Assay results from patent US10670605B2, “Cysteine reactive probes and uses thereof” (The Scripps Research Institute, priority 2015, dated 2020).

Experiments:
Assay in all cases: Competitive isoTOP-ABPP in situ (fragment-treated cells)
Format in all cases: cell-based
[1] = biological target: T1, cysteines in MDA-MB-231 and Ramos cells (Homo sapiens, UniProt Q9UKX7)
T1 sequence (Q9UKX7 1-468): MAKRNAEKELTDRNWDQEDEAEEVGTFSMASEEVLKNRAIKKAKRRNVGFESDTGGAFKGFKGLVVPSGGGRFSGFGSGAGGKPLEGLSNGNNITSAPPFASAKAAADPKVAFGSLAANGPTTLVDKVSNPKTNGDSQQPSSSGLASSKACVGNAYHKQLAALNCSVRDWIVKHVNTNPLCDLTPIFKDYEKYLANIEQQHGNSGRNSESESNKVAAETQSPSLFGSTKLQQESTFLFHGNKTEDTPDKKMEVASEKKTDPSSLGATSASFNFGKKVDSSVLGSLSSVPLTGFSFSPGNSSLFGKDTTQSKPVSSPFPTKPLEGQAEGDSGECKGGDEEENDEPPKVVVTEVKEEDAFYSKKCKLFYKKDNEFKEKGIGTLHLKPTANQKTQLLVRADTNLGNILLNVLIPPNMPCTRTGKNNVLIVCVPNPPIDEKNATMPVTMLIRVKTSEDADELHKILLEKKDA

[2] = biological target: cysteines in MDA-MB-231 and Ramos cells (Homo sapiens, UniProt Q5UIP0)
cysteines in MDA-MB-231 and Ramos cells (Homo sapiens, UniProt Q5UIP0), sequence (Q5UIP0 whole entry): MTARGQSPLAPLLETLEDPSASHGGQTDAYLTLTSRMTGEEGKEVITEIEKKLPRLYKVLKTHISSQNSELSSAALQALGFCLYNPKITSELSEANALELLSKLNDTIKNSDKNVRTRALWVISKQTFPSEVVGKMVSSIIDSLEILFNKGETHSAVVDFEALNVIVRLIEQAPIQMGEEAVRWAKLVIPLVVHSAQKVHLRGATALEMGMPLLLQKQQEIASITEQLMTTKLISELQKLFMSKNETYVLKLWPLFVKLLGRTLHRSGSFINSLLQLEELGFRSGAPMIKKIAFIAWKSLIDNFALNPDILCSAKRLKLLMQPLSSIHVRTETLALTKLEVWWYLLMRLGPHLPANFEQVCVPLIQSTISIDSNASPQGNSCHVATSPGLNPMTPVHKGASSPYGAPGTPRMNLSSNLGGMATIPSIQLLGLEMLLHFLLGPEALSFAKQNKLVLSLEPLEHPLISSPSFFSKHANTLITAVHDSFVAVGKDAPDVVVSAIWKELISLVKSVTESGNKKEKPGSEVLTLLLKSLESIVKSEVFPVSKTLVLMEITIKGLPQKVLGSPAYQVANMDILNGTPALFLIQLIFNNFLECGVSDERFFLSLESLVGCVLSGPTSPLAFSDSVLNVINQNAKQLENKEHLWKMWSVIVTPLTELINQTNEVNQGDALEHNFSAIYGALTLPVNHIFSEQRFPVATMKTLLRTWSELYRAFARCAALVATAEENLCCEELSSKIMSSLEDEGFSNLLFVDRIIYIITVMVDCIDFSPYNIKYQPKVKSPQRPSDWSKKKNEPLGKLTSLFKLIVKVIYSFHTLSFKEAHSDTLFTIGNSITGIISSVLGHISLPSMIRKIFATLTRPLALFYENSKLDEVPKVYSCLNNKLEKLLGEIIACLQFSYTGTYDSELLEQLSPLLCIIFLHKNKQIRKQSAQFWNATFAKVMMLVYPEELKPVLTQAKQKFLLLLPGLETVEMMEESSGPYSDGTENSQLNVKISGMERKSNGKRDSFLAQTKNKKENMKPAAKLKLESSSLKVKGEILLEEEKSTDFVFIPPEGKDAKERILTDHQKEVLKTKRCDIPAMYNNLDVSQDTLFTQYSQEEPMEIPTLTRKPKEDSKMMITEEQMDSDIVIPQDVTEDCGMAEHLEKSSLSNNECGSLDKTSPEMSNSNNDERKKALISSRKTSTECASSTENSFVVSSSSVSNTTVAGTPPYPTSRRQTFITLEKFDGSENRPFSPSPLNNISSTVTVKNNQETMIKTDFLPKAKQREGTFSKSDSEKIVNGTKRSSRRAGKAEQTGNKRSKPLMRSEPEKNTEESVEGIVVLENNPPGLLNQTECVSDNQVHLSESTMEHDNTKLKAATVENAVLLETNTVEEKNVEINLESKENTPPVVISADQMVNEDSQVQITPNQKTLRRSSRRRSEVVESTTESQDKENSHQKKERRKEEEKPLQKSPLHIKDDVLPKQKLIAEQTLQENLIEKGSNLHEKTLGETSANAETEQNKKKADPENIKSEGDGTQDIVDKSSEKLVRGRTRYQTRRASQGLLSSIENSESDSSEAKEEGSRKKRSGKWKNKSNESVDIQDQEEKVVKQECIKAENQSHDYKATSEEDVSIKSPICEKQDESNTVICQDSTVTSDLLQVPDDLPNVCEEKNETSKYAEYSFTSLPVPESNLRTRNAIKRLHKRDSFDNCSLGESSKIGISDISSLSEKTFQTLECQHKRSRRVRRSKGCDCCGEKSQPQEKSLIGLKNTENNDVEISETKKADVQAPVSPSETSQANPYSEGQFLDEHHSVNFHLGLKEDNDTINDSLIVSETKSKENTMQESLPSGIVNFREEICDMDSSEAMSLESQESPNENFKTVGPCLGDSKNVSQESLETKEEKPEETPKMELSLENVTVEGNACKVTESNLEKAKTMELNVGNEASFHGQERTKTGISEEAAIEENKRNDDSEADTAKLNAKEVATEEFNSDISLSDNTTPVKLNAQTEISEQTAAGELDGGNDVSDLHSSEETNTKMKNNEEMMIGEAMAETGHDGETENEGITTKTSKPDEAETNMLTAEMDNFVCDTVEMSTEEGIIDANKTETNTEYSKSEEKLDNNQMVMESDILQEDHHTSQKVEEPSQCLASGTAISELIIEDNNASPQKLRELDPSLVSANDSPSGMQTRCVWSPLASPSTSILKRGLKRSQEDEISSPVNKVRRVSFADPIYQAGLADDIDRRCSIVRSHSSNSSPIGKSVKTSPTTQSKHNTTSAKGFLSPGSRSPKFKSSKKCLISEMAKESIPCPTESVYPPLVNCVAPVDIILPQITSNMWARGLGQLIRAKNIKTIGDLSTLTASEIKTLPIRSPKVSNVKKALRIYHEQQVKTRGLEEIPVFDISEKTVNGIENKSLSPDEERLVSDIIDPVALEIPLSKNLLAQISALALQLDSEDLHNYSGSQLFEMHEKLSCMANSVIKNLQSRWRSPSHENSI

[3] = biological target: T2, cysteines in MDA-MB-231 and Ramos cells (Homo sapiens, UniProt Q8IYQ7); conditions: 200 μM, insitu, 231
T2 sequence (Q8IYQ7 1-743): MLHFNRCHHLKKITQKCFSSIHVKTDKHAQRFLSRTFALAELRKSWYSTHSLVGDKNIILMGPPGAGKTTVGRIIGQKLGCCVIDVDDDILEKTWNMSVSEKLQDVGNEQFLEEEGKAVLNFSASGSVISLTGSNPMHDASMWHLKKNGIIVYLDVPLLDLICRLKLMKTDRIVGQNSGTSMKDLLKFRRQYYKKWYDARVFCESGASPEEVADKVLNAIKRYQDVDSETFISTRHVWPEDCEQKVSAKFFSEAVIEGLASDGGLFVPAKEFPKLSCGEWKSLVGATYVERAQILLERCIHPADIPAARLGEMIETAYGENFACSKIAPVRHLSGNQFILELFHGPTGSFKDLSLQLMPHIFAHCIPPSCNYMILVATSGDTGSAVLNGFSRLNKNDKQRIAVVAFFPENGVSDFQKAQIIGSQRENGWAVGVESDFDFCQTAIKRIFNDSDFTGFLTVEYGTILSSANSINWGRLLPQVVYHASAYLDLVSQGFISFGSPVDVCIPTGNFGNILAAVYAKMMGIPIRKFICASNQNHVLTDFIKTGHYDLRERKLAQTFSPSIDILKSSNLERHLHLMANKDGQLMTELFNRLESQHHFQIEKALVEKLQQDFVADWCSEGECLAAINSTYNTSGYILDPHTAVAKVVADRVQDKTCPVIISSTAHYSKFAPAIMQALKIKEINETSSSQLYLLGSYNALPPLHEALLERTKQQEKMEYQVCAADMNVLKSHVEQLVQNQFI

[4] = biological target: T3, cysteines in MDA-MB-231 and Ramos cells (Homo sapiens, UniProt Q99798); conditions: 200 μM, insitu, 231
T3 sequence (Q99798 28-780): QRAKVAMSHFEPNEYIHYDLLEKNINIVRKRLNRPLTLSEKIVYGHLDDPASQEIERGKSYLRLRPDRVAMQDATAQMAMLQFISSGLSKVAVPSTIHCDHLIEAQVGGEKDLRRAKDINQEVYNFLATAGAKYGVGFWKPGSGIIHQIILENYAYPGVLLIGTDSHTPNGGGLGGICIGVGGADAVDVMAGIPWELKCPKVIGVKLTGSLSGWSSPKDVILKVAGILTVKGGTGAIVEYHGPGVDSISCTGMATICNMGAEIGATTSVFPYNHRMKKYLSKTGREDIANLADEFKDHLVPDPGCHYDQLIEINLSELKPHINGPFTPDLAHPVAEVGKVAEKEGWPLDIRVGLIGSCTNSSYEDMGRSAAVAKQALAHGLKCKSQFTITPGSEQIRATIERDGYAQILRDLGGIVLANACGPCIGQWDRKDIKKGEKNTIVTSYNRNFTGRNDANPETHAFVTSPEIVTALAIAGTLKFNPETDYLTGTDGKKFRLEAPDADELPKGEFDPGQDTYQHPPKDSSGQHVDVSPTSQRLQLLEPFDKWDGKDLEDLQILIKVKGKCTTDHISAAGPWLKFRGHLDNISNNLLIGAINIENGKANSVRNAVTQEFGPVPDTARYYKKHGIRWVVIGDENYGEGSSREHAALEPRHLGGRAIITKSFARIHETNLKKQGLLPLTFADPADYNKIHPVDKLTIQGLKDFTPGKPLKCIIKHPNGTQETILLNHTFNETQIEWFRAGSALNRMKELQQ

[5] = biological target: T4, cysteines in MDA-MB-231 and Ramos cells (Homo sapiens, UniProt Q16667); conditions: 200 μM, insitu
T4 sequence (Q16667 1-212): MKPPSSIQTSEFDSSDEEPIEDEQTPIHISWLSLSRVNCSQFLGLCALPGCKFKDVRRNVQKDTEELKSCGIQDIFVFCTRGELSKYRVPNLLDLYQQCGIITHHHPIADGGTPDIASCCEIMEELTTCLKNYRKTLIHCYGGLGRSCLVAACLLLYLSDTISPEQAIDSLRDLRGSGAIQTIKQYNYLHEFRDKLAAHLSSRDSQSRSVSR

[6] = biological target: cysteines in MDA-MB-231 and Ramos cells (Homo sapiens, UniProt Q6PCB5); conditions: 200 μM, insitu
cysteines in MDA-MB-231 and Ramos cells (Homo sapiens, UniProt Q6PCB5), sequence (Q6PCB5 whole entry): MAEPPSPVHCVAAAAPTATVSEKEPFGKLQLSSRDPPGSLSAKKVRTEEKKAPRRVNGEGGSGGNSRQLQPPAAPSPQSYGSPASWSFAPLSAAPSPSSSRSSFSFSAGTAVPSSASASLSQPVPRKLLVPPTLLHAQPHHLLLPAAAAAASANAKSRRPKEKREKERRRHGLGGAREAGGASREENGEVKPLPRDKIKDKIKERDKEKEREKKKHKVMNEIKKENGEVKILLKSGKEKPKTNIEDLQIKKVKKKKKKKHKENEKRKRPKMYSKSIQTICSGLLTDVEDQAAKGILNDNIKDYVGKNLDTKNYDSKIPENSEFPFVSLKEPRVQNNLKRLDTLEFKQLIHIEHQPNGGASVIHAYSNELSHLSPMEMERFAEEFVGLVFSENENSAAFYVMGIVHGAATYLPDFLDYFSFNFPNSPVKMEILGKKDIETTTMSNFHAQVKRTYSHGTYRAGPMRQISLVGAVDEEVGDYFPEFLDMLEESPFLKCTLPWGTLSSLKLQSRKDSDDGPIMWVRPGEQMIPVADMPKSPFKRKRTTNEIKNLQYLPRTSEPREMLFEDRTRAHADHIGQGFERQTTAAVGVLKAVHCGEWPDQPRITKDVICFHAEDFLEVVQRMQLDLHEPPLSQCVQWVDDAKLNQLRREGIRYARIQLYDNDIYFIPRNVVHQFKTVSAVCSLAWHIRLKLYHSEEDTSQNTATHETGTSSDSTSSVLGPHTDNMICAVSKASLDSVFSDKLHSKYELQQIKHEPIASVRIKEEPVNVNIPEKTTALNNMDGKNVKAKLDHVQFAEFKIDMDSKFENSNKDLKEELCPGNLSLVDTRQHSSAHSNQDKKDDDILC

[7] = biological target: T5, cysteines in MDA-MB-231 and Ramos cells (Homo sapiens, UniProt Q02556); conditions: 200 μM, insitu, ramos
T5 sequence (Q02556 1-426): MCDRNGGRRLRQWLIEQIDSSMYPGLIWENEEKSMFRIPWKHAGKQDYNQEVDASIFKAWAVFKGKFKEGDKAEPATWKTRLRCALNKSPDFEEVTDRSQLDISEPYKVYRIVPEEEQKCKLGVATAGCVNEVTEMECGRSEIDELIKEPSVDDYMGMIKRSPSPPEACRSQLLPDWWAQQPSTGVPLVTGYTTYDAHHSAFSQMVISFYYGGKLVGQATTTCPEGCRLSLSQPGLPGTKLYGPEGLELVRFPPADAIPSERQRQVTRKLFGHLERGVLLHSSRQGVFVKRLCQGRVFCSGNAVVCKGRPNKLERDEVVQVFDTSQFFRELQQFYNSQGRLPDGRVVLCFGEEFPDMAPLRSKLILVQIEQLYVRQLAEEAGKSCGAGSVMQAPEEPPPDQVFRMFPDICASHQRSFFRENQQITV

## COc1ccc2c(c1)CCCN2C(=O)CCl [compound 2]
[1]; 200 μM, insitu, 231
  isoTOP-ABPP reactivity Q9UKX7_C151 NUP50: 6.1

## COc1ccc(C2CC(c3cccs3)=NN2C(=O)CCl)cc1 (stereo not drawn) [compound 4]
[2]; 100 μM in situ 231
  isoTOP-ABPP reactivity Q5UIP0_C2298 RIF1: 20.0

## COc1cc2c(cc1OC)CN(C(=O)CCl)CC2 [compound 8]
[3]
  isoTOP-ABPP reactivity Q8IYQ7_C324 THNSL1: 20.0

## O=C(CCl)N1CCC(Cc2ccccc2)CC1 [compound 9]
[3]
  isoTOP-ABPP reactivity Q8IYQ7_C324 THNSL1: 1.6

## O=C(CCl)N1CCN(S(=O)(=O)c2ccccc2F)CC1 [compound 10]
[3]
  isoTOP-ABPP ratio, cysteine Q8IYQ7_C324: 5.3
[2]; 200 μM, insitu, 231
  isoTOP-ABPP ratio, cysteine Q5UIP0_C2298: 20.0
[4]
  isoTOP-ABPP ratio, cysteine Q99798_C385: 0.7
[5]; 231
  isoTOP-ABPP ratio, cysteine Q16667_C39: 2.3

## Cn1cc(S(=O)(=O)N2CCOCC2)cc1C(=O)NC(=O)CCl [compound 11]
[1]; 100 μM in situ 231
  isoTOP-ABPP ratio, cysteine Q9UKX7_C151: 1.0
[2]; 100 μM in situ 231
  isoTOP-ABPP ratio, cysteine Q5UIP0_C2298: 1.3

## O=C(CCl)NC(=O)NC12CC3CC(CC(C3)C1)C2 [compound 12]
[1]; 200 μM, insitu, 231
  isoTOP-ABPP ratio, cysteine Q9UKX7_C151: 6.7
[6]; 231
  isoTOP-ABPP ratio, cysteine Q6PCB5_C280: 20.0

## O=C(CCl)NCCc1c[nH]c2ccccc12 [compound 13]
[3]
  isoTOP-ABPP ratio, cysteine Q8IYQ7_C324: 1.3
[6]; ramos
  isoTOP-ABPP ratio, cysteine Q6PCB5_C280: 0.8
[5]; ramos
  isoTOP-ABPP ratio, cysteine Q16667_C39: 1.2
[7]
  isoTOP-ABPP ratio, cysteine Q02556_C306: 1.5

## O=C(CCl)NC12CC3CC(CC(C3)C1)C2 [compound 21]
[3]
  isoTOP-ABPP ratio, cysteine Q8IYQ7_C324: 2.0
[2]; 200 μM, insitu, 231
  isoTOP-ABPP ratio, cysteine Q5UIP0_C2298: 0.9
[4]
  isoTOP-ABPP ratio, cysteine Q99798_C385: 2.0
[5]; 231
  isoTOP-ABPP ratio, cysteine Q16667_C39: 0.8

## CC(C)CCOCCNC(=O)CCl [compound 27]
[6]; 231
  isoTOP-ABPP ratio Q6PCB5_C280: 1.0

## O=C(CCl)N1CCN(CC(=O)N2CCOCC2)CC1 [compound 29]
[6]; ramos
  isoTOP-ABPP ratio Q6PCB5_C280: 1.4
[5]; ramos
  isoTOP-ABPP ratio Q16667_C39: 1.7
[7]
  isoTOP-ABPP ratio, Q02556_C306: 1.4

## C=CC(=O)N(Cc1cccnc1)c1cc(C(F)(F)F)cc(C(F)(F)F)c1 [compound 31]
[7]
  isoTOP-ABPP ratio, Q02556_C306: 2.0

## Cc1ccc(C=C(C#N)C(=O)NCCN2CCOCC2)cc1 [compound 41]
[1]; 200 μM, insitu, 231
  isoTOP-ABPP ratio Q9UKX7_C151: 0.8
[4]
  isoTOP-ABPP ratio Q99798_C385: 0.1
